These results are taken from the NIST ThermoML archive (doi:10.1021/acs.jced.8b00196).

Data set [1] in a line: Molar enthalpy of transition or fusion. The note with it: Crystal; DSC.
The conditions of data set [2]: Crystal; DSC.

Numbers after ± are expanded uncertainties.

With `O=C(c1ccccc1)c1ccccc1` [benzophenone], in data set [1], the “Molar enthalpy of transition or fusion” value came out at 4.21 ± 0.311 kcal/mol. In addition, the Triple point temperature in data set [2] turned out to be 323.4 ± 2.1 K.
